Laboratory results as given in patent US12617798B2, “Imidazopyrazne derivatives” (Hoffmann-La Roche Inc., priority 2020, dated 2026).
Structures can show the parent of a compound that is named as a salt.

Key:
[1] = system: Acinetobacter baumannii ATCC17961; assay: Antimicrobial susceptibility testing, 90% growth inhibitory concentration (IC90) determination; format: cell-based; conditions: Iso-Sensitest broth, OD 600 nm over 16 h, 35±2° C., read-out: ATCC 17961 IC90
Protocol: (§1) 90% Growth Inhibitory Concentration (IC90) Determination The in vitro antimicrobial activity of the compounds was determined according to the following procedure: The assay used a 10-points Iso-Sensitest broth medium to measure quantitatively the in vitro activity of the compounds against Acinetobacter baumannii ATCC17961 and Pseudomonas aeruginosa ATCC27853. Stock compounds in DMSO were serially twofold diluted (e.g. range from 50 to 0.097 μM final concentration) in 384 wells microtiter plates and inoculated with 49 μl the bacterial suspension in Iso-Sensitest medium to have a final cell concentration of ˜5×10^(5) CFU/ml in a final volume/well of 50 ul/well. Microtiter plates were incubated at 35±2° C. Bacterial cell growth was determined with the measurement of optical density at λ=600 nm each 20 minutes over a time course of 16 h. Growth inhibition was calculated during the logarithmic growth of the bacterial cells with determination of the concentration inhibiting 50% (IC50) and 90% (IC90) of the growth. Table 1 provides the 90% growth inhibitory concentrations (IC90) in micromoles per liter of the compounds of present invention obtained against the strain Acinetobacter baumannii ATCC17961.

[2] = system: Pseudomonas aeruginosa ATCC27853; assay: as above; format: cell-based; conditions: Iso-Sensitest broth, OD 600 nm over 16 h, 35±2° C., read-out: ATCC 27853 IC90
Protocol: as §1, with “Table 2” for “Table 1”, “strain Pseudomonas aeruginosa ATCC27853.” for “strain Acinetobacter baumannii ATCC17961.”

Row | Structure (SMILES) | IC90 [1] [µM] | IC90 [2] [µM]
1 | CCc1cc(Nc2nccn3c(-c4ccc(-c5cn(CCOC)nc5C)c(F)c4F)cnc23)ccc1C(=O)NCC1CC[N+](C)(CCO)CC1 (stereo not shown) [Example C3, 4-[[3-[2,3-difluoro-4-[1-(2-methoxyethyl)-3-methyl-pyrazol-4-yl]phenyl]imidazo[1,2-a]pyrazin-8-yl]amino]-2-ethyl-N-[[1-(2-hydroxyethyl)-1-methyl-piperidin-1-ium-4-yl]methyl]benzamide; formate] | 0.43 | 1.6
2 | CCc1cc(Nc2nccn3c(-c4ccc(-c5c[nH]nc5C)cc4)cnc23)ccc1C(=O)NCC1CC[N+](C)(CC2CNC2)CC1 (stereo not shown) [Example B5, N-[[1-(azetidin-3-ylmethyl)-1-methyl-piperidin-1-ium-4-yl]methyl]-2-ethyl-4-[[3-[4-(3-methyl-1H-pyrazol-4-yl)phenyl]imidazo[1,2-a]pyrazin-8-yl]amino]benzamide; formic acid; formate] | 0.1 | 0.098
3 | CCc1cc(Nc2nccn3c(-c4ccc(-c5c[nH]nc5C)nc4F)cnc23)ccc1C(=O)NCC1CC[N+](C)(CC2CNC2)CC1 (stereo not shown) [Example B1, N-[[1-(Azetidin-3-ylmethyl)-1-methyl-piperidin-1-ium-4-yl]methyl]-2-ethyl-4-[[3-[2-fluoro-6-(3-methyl-1H-pyrazol-4-yl)-3-pyridyl]imidazo[1,2-a]pyrazin-8-yl]amino]benzamide; formic acid; formate] | 1.1 | 0.12
4 | CCc1cc(Nc2nccn3c(-c4ccc(-c5c[nH]nc5C)c(F)c4F)cnc23)ccc1C(=O)NCC1CCN(CC(=O)O)CC1 [Example A3, 2-[4-[[[4-[[3-[2,3-difluoro-4-(3-methyl-1H-pyrazol-4-yl)phenyl]imidazo[1,2-a]pyrazin-8-yl]amino]-2-ethyl-benzoyl]amino]methyl]-1-piperidyl]acetic acid] | 0.34 | 1.8
5 | CCc1cc(Nc2nccn3c(-c4ccc(-c5c[nH]nc5C)c(F)c4F)cnc23)ccc1C(=O)NCC1CC[N+](C)(CC2CNC2)CC1 (stereo not shown) [Example A2, N-[[1-(Azetidin-3-ylmethyl)-1-methyl-piperidin-1-ium-4-yl]methyl]-4-[[3-[2,3-difluoro-4-(3-methyl-1H-pyrazol-4-yl)phenyl]imidazo[1,2-a]pyrazin-8-yl]amino]-2-ethyl-benzamide; formic acid; formate] | 0.05 | 0.098
6 | CCc1cc(Nc2nccn3c(-c4ccc(-c5cn(CCOC)nc5C)c(F)c4F)cnc23)ccc1C(=O)NCC1CC[N+](C)(C)CC1 [Example C1, 4-[[3-[2,3-Difluoro-4-[1-(2-methoxyethyl)-3-methyl-pyrazol-4-yl]phenyl]imidazo[1,2-a]pyrazin-8-yl]amino]-N-[(1,1-dimethylpiperidin-1-ium-4-yl)methyl]-2-ethyl-benzamide; formate] | 0.27 | 1
7 | CCc1cc(Nc2nccn3c(-c4ccc(-c5c[nH]nc5C)c(F)c4F)cnc23)ccc1C(=O)NCC1CC[N+](C)(CC(=O)O)CC1 (stereo not shown) [Example A4, 2-[4-[[[4-[[3-[2,3-difluoro-4-(3-methyl-1H-pyrazol-4-yl)phenyl]imidazo[1,2-a]pyrazin-8-yl]amino]-2-ethyl-benzoyl]amino]methyl]-1-methyl-piperidin-1-ium-1-yl]acetic acid; formate] | 0.31 | 1.2
8 | CCc1cc(Nc2nccn3c(-c4ccc(-c5c[nH]nc5C(F)(F)F)c(F)c4F)cnc23)ccc1C(=O)NCC1CC[N+](C)(CC2CNC2)CC1 (stereo not shown) [Example B6, N-[[1-(azetidin-3-ylmethyl)-1-methyl-piperidin-1-ium-4-yl]methyl]-4-[[3-[2,3-difluoro-4-[3-(trifluoromethyl)-1H-pyrazol-4-yl]phenyl]imidazo[1,2-a]pyrazin-8-yl]amino]-2-ethyl-benzamide; formic acid; formate] | 0.16 | 0.25
9 | CCc1cc(Nc2nccn3c(-c4ccc(-c5cn(CCOC)nc5C)c(F)c4F)cnc23)ccc1C(=O)NCC1CC[N+](C)(CC2CNC2)CC1 (stereo not shown) [Example C4, N-[[1-(azetidin-3-ylmethyl)-1-methyl-piperidin-1-ium-4-yl]methyl]-4-[[3-[2,3-difluoro-4-[1-(2-methoxyethyl)-3-methyl-pyrazol-4-yl]phenyl]imidazo[1,2-a]pyrazin-8-yl]amino]-2-ethyl-benzamide; formic acid; formate] | 0.46 | 0.41
10 | CCc1cc(Nc2nccn3c(-c4ccc(-c5c(C)nn(CCOC)c5C)c(F)c4F)cnc23)ccc1C(=O)NCC1CC[N+](C)(CCO)CC1 (stereo not shown) [Example C6, 4-[[3-[2,3-difluoro-4-[1-(2-methoxyethyl)-3,5-dimethyl-pyrazol-4-yl]phenyl]imidazo[1,2-a]pyrazin-8-yl]amino]-2-ethyl-N-[[1-(2-hydroxyethyl)-1-methyl-piperidin-1-ium-4-yl]methyl]benzamide; formate] | 0.44 | 1.2
11 | CCc1cc(Nc2nccn3c(-c4ccc(-c5c(C)n[nH]c5C)nc4F)cnc23)ccc1C(=O)NCC1CC[N+](C)(CC2CNC2)CC1 (stereo not shown) [Example B4, N-[[1-(azetidin-3-ylmethyl)-1-methyl-piperidin-1-ium-4-yl]methyl]-4-[[3-[6-(3,5-dimethyl-1H-pyrazol-4-yl)-2-fluoro-3-pyridyl]imidazo[1,2-a]pyrazin-8-yl]amino]-2-ethyl-benzamide; formic acid; formate] | 0.43 | 0.098
12 | CCc1cc(Nc2nccn3c(-c4ccc(-c5c(C)nn(CCOC)c5C)c(F)c4F)cnc23)ccc1C(=O)NCC1CC[N+](C)(CC(N)=O)CC1 (stereo not shown) [Example C5, N-[[1-(2-amino-2-oxo-ethyl)-1-methyl-piperidin-1-ium-4-yl]methyl]-4-[[3-[2,3-difluoro-4-[1-(2-methoxyethyl)-3,5-dimethyl-pyrazol-4-yl]phenyl]imidazo[1,2-a]pyrazin-8-yl]amino]-2-ethyl-benzamide; formate] | 0.68 | 1.9
13 | CCc1cc(Nc2nccn3c(-c4ccc(-c5c[nH]nc5C(F)(F)F)c(F)c4F)cnc23)ccc1C(=O)NCC1CCN(CC2CNC2)CC1 [Example A12, N-[[1-(azetidin-3-ylmethyl)-4-piperidyl]methyl]-4-[[3-[2,3-difluoro-4-[3-(trifluoromethyl)-1H-pyrazol-4-yl]phenyl]imidazo[1,2-a]pyrazin-8-yl]amino]-2-ethyl-benzamide; formic acid] | 0.28 | 0.43
14 | CCc1cc(Nc2nccn3c(-c4ccc(-c5c[nH]nc5C)c(F)c4F)cnc23)ccc1C(=O)NCC1CC[N+](CC(=O)O)(CC2CNC2)CC1 (stereo not shown) [Example A5, 2-[1-(azetidin-3-ylmethyl)-4-[[[4-[[3-[2,3-difluoro-4-(3-methyl-1H-pyrazol-4-yl)phenyl]imidazo[1,2-a]pyrazin-8-yl]amino]-2-ethyl-benzoyl]amino]methyl]piperidin-1-ium-1-yl]acetic acid; formic acid; formate] | 0.15 | 0.24
15 | CCc1cc(Nc2nccn3c(-c4ccc(-c5c[nH]nc5C)c(F)c4F)cnc23)ccc1C(=O)NCC1CCN(CC2CNC2)CC1 [Example A1, N-[[1-(Azetidin-3-ylmethyl)-4-piperidyl]methyl]-4-[[3-[2,3-difluoro-4-(3-methyl-1H-pyrazol-4-yl)phenyl]imidazo[1,2-a]pyrazin-8-yl]amino]-2-ethyl-benzamide; formic acid] | 0.047 | 0.16
16 | CCc1cc(Nc2nccn3c(-c4ccc(-c5c(C)nn(CCOC)c5C)c(F)c4F)cnc23)ccc1C(=O)NCC1CC[N+](C)(CC2CNC2)CC1 (stereo not shown) [Example C7, N-[[1-(azetidin-3-ylmethyl)-1-methyl-piperidin-1-ium-4-yl]methyl]-4-[[3-[2,3-difluoro-4-[1-(2-methoxyethyl)-3,5-dimethyl-pyrazol-4-yl]phenyl]imidazo[1,2-a]pyrazin-8-yl]amino]-2-ethyl-benzamide; formic acid; formate] | 0.32 | 0.39
17 | CCc1cc(Nc2nccn3c(-c4ccc(-c5cn(CCOC)nc5C)c(F)c4F)cnc23)ccc1C(=O)NCC1CC[N+](C)(CC(N)=O)CC1 (stereo not shown) [Example C2, N-[[1-(2-amino-2-oxo-ethyl)-1-methyl - piperidin-1-ium-4-yl]methyl]-4-[[3-[2,3-difluoro-4-[1-(2-methoxyethyl)-3-methyl-pyrazol-4-yl]phenyl]imidazo[1,2-a]pyrazin-8-yl]amino]-2-ethyl-benzamide; formate] | 0.29 | 1.2
